111 compounds from a melting point compilation (Tetko et al.) can be followed below.

Structures are written as SMILES.

By melting point is commonly meant the temperature of the solid-liquid transition.

`Cc1ccc(-c2ccc(C=CC(=O)c3ccccc3)o2)cc1` displayed a melting point of 100 to 101 °C.

In turn, `Cc1ccc(NN=C2C(=O)NN(c3ccccc3)C2=O)cc1` gave a melting point of 277 °C. Take `N#Cc1ccc(CCl)cc1`: the melting point was 79 °C. In the case of `CC1CC2C3CC(F)C4=CC(=O)C=CC4(C)C3C(O)CC2(C)C1C(=O)CO` (stereo unspecified) it was 188 °C; in that of `CCCCCCCC=O`, 12.5 °C; in that of `COc1cc(F)c(Br)cc1F`, 63 °C. With `COC(=O)N(C(=O)N1COC2(C(=O)OC)Cc3cc(Cl)ccc3C2=N1)c1ccc(OC(F)(F)F)cc1` (stereo unspecified) the figure was 88.1 °C; with `Oc1c(F)cc(Br)cc1Br`, 32 °C. As to `CC(=O)c1ccc2c(c1)OCO2`, the melting point was in the range of 86 to 89 °C. In the case of `CC1=NNC(=O)C1=NNc1cccc(F)c1` it was 218 °C. In the case of `COc1ccc(C=CC(=O)c2cccc(C(=O)C=Cc3ccc(OC)cc3)c2)cc1` it was 135 °C; in that of `CC(=O)N1CCc2ccc(N)cc21`, 182 to 185 °C.

In turn, `Brc1cccnc1Br` yielded a melting point of 59 °C. With `Cc1ccc(NN=C2C(=O)NN=C2C(F)(F)F)cc1`, the melting point turned out to be 230 °C. In the case of `CCCCCCCCCCCCN1c2ccccc2C(C)(C)C12C=Cc1cc([N+](=O)[O-])ccc1O2` (stereo unspecified), the melting point stood at 109 °C. In the case of `FC(F)(F)CBr` it was -93.9 °C; in that of `CCC1(O)CCCCC1`, 34.5 °C. `O=Cc1cccc(Br)n1` yielded a melting point of 81 °C. For `Clc1cccc(Cl)c1I`, the melting point lay in the range of 64 to 67 °C. `Cc1cnc(C(=O)O)cn1` gave a melting point of 166 °C. For `N#Cc1ccc(O)c(Cl)c1`, the melting point lay within 150 to 153 °C. With `ClCc1noc(-c2cccs2)n1` the figure was 67 to 68 °C; with `O=Cc1ccc(Oc2cccnc2)o1`, 72 to 73 °C; with `CCOc1cc(OP(=S)(OC)OC)nc(CC)n1`, -3.35 °C. Compound `Clc1cc(C(Cl)Cl)c(Cl)cc1C(Cl)Cl` displayed a melting point of 72 °C. In turn, `N#Cc1ccccc1-n1ccnc1` came in with a melting point of 148 to 151 °C. The compound `N#Cc1cccc(F)n1` returned a melting point of 34 °C. For the compound `Cc1ccc(C2NC(=O)NC(c3ccc(C)cc3)C2(C#N)C(=O)c2ccccc2)cc1` (stereo unspecified), the melting point is 234 to 235 °C. For the compound `O=C(O)C=CC(=O)Nc1ccc(I)cc1`, the melting point was 194 °C. The compound `Nc1c(C(=O)O)ccc2c1C(=O)c1ccccc1C2=O` registered a melting point of 296 °C. In the case of `O=C(O)c1ccc2nonc2c1` it was 157 to 158 °C; in that of `O=S(=O)(O)CCCNC(CO)(CO)CO`, 240 °C. For the compound `CCOC(=O)Nc1cccc([N+](=O)[O-])c1[N+](=O)[O-]`, the melting point was 102 to 103 °C.

In the case of `O=C(Cl)c1cnn(-c2ccc([N+](=O)[O-])cc2)c1C(F)(F)F`, the melting point is 77 to 79 °C. Turning to `Nc1cc(-c2ccco2)[nH]n1`, the melting point is 126 °C. `O=C(c1ccc([N+](=O)[O-])cc1)c1noc(-c2ccc([N+](=O)[O-])cc2)c1S(=O)(=O)c1ccccc1` gave a melting point of 133 °C. `CCCCCCCCCCCCCCC(C)C`: the melting point was 4 °C. For `Cc1cc(N)n(-c2ccccc2)n1`, the melting point worked out at 116 °C. The compound `Oc1c(F)c(F)c2c(F)c(F)c(F)c(F)c2c1F` registered a melting point of 120 to 124 °C. Compound `CCn1cc(C(=O)O)c(=O)c2cnc(N3CCCC3)nc21` gave a melting point of 315 °C. Compound `FC(F)(F)C(Cl)C(F)(F)F` had a melting point of -120 °C. With `O=C(c1ccccc1)C1SC(=S)N(c2ccccc2)C1=O` (stereo unspecified) the figure was 159 °C. In the case of `COC(=O)c1cnc(Br)s1` it was 63 °C. For the compound `CCCCCN=C(N)NNC=C1C=Nc2ccc(CO)cc21`, the melting point worked out at 155 °C. In turn, `CC(C)(C)c1nnc(N)s1` returned a melting point of 183 °C.

With `O=C(O)c1ccccc1S(=O)(=O)O`, the melting point came out at 142 °C. `Cc1cc(C)nc(S)n1` returned a melting point of 213 to 217 °C. `Oc1c(F)c(F)c(O)c(F)c1F` registered a melting point of 172 to 174 °C. In the case of `O=[N+]([O-])c1ccc(-n2cc([N+](=O)[O-])c(-c3ccccc3)n2)cc1` it was 230 to 232 °C; in that of `COC(=O)C1Cc2ccccc2C(=O)C1C(=O)OC` (stereo unspecified), 88 °C; in that of `Cc1nc(C(F)(F)F)ccc1C(=O)O`, 137 to 142 °C. Consider `CCCCc1ccc(N=Cc2ccc(C=Nc3ccc(CCCC)cc3)cc2)cc1`, for which the melting point came out at 232 °C. On to `O=[N+]([O-])c1cccnc1NC1CC1`, for which the melting point fell in the range of 61 to 63 °C. With `N#Cc1ccccc1Oc1ccc(Cl)cc1Cl` the figure was 84 to 86 °C; with `ClC1=C(Cl)C2(Cl)C3C4OC4(Cl)C(Cl)C3C1(Cl)C2(Cl)Cl` (stereo unspecified), 144 °C; with `OC1CN(C(c2ccccc2)c2ccccc2)C1`, 106 to 111 °C. With `Sc1ncnc2c1cnn2-c1ccccc1`, the melting point lay within 286 to 288 °C.

As to `CCCC(Cn1cncn1)c1ccc(Cl)cc1Cl` (stereo unspecified), the melting point amounted to 60.3 °C. Compound `O=C(Nc1cccnc1Cl)c1ccc(Cl)cc1` returned a melting point of 146 to 148 °C. With `Cc1c(C)c(CCl)c(C)c(CCl)c1C`, the melting point was 117 °C. Regarding `CN(C)c1ccccc1-c1ccccc1P(C1CCCCC1)C1CCCCC1`, the melting point was found to be 123 °C.

Take `Cn1ccc(S(=O)(=O)Cl)n1`: the melting point was 36 to 39 °C. As for `COc1ccccc1N1CCN(C(=O)c2ccc(N)cc2)CC1`, the melting point was in the range of 212 to 214 °C. `CSCN1C(=O)NC(c2ccccc2)(c2ccccc2)C1=O` yielded a melting point of 124 to 131 °C. `CC(C)[C@H](NC(=O)OCC1c2ccccc2-c2ccccc21)C(=O)Oc1c(F)c(F)c(F)c(F)c1F` had a melting point of 121 to 122 °C. In turn, `Clc1ncccc1-c1cccc(Br)n1` had a melting point of 140 °C.

With `O=C(Cl)C1=Cc2cc(Cl)ccc2OC1`, the melting point lay within 92 to 94 °C. Compound `O=C(O)c1cc2ccccc2c2ccccc12` had a melting point of 253 °C. With `CNC(=O)CSP(=O)(OC)OC` the figure was -28 °C. Regarding `CC1(C)OC(C)(C(O)(Cc2ccccc2)Cc2ccccc2)CCC1C(=O)O` (stereo unspecified), the melting point fell in the range of 137 to 138 °C.

In turn, `Sc1nc(-c2ccccc2)c(-c2ccccc2)o1` registered a melting point of 253 °C. Regarding `O=C(O)CCc1ccc(Cl)c(Cl)c1`, the melting point is 97 to 99 °C. For `CCCCCCCCC(=O)OC(=O)CCCCCCCC`, the melting point stood at 14.8 °C.

`Cc1c(N)cccc1O`: the melting point lay within 127 to 133 °C. Consider `c1ccc2c(c1)-c1cc3ccccc3c3cc4ccccc4c-2c13`, for which the melting point was 232 °C. In the case of `N#CCC(=O)c1cccs1` it was 112 °C; in that of `CC(C)(Oc1ccc(CCNC(=O)c2ccc(Cl)cc2)cc1)C(=O)O`, 186 °C; in that of `COc1ccc(CO)c(OC)c1`, 37 to 40 °C. Consider `CCCCCC(=O)OCC`, for which the melting point was -67 °C. Regarding `CCOc1ccc(-c2nnc3n2NC(c2ccc(N(C)C)cc2)S3)cc1` (stereo unspecified), the melting point was determined as 137 °C.

Regarding `CCOC(=O)C1=C(CBr)NC(=O)NC1C` (stereo unspecified), the melting point worked out at 148 °C. In the case of `CCC1(CC)C(=O)NCC(C)C1=O` (stereo unspecified), the melting point turned out to be 76 °C.

As for `CC1CC(OC(=O)c2ccccc2)CC(C)(C)N1` (stereo unspecified), the melting point is 70.5 °C. In turn, `CCCCCCCCCCC(C)C(=O)O` (stereo unspecified) registered a melting point of 22 °C.

`Oc1ccc2ncccc2c1` registered a melting point of 190 to 195 °C. `CCOc1ccc2c3c1OC1C(O)C=CC4C(C2)N(C)CCC341` (stereo unspecified) yielded a melting point of 200 °C. Consider `N#Cc1cc(Br)cc(Br)c1N`, for which the melting point was 152 to 156 °C.

Regarding `CCC(CC)C(N)CC(=O)O` (stereo unspecified), the melting point lay in the range of 213 to 214 °C. `COc1ccc(C2(C)CCc3oc4c(Br)cc(Br)cc4c3-c3oc(C)cc32)cc1` (stereo unspecified): the melting point came out at 165 °C.

As to `O=S1(=O)CC(O)C(Cl)C1` (stereo unspecified), the melting point was in the range of 163 to 165 °C. The compound `Cc1cc(O)c(C)c(C)c1C` had a melting point of 85.3 °C.

For the compound `Nc1ccccc1C(=NO)c1ccccc1`, the melting point lay in the range of 157 to 158 °C. On to `CC(=O)C1(O)C(C)CC2C3CC=C4CC(O)CCC4(C)C3CCC21C` (stereo unspecified), for which the melting point was in the range of 224 to 230 °C.

Turning to `COc1ccccc1-c1nnc2n1CN(c1ccccc1C)CS2`, the melting point lay within 239 to 240 °C. In turn, `C#CC(O)CCCCC` (stereo unspecified) displayed a melting point of -60 °C. In the case of `N#Cc1ccc(NC(N)=S)cc1` it was 209 to 210 °C.

On to `O=C(NCc1ccccc1)c1cccnc1Cl`, for which the melting point was determined as 120 °C.

In turn, `CC(C)(C)OC(=O)Nc1ccsc1` gave a melting point of 138 to 140 °C. The compound `CCN1CCCC1CNC(=O)c1cc(S(=O)(=O)CC)ccc1OC` (stereo unspecified) yielded a melting point of 182 °C. Regarding `Fc1ccccc1-c1ccccc1F`, the melting point is 112 to 114 °C. In turn, `Cc1cc(Br)c(OCC(=O)NN)c2c1CCC2` gave a melting point of 69 to 70 °C. Take `Cc1c(Cl)cc(F)cc1S(N)(=O)=O`: the melting point lay within 118 to 120 °C.

In the case of `CCC(C)(C#N)N=NC(C)(C#N)CC` (stereo unspecified), the melting point was 50 °C. The compound `CCCCC(=O)OCN1C(=O)NC(c2ccccc2)(c2ccccc2)C1=O` displayed a melting point of 91 °C. `Cn1ccnc1C=O` showed a melting point of 35 to 39 °C. In the case of `CC(=O)COc1c([N+](=O)[O-])ccc(F)c1F`, the melting point lay within 40 to 45 °C. In turn, `O=C(OCC(=O)N1CCOCC1)c1ccccc1` returned a melting point of 104 °C. For `COC(=O)c1ccc2c(I)cn(C(=O)OC(C)(C)C)c2c1`, the melting point was in the range of 154 to 155 °C. `Cc1nn2c(-c3ccccc3)nnc2s1` registered a melting point of 192 to 194 °C.

On to `NC(CCc1ccccc1)CC(=O)O` (stereo unspecified), for which the melting point fell in the range of 223 to 227 °C. `CCOC(=O)c1c(N)sc(C)c1C` came in with a melting point of 90 to 91 °C.
